In the kinase profiling compilation of Christmann-Franck et al. (2016):

Assays:
Test in all cases: radiometric filter-binding kinase assay, Kinase HotSpot
Details in all cases: compound 0.5 µM; ATP 10 µM
[1] = biological target: CAMK2G (human) (UniProt Q13555)
[2] = biological target: CSNK1A1 (human) (UniProt P48729)
[3] = biological target: PAK3 (human) (UniProt O75914)
[4] = biological target: ACVR1 (human) (UniProt Q04771)
[5] = biological target: DAPK3 (human) (UniProt O43293)
[6] = biological target: PRKACA (human) (UniProt P17612)
[7] = biological target: YES1 (human) (UniProt P07947)
[8] = biological target: FGFR1 (human) (UniProt P11362)
[9] = biological target: MAP3K8 (human) (UniProt P41279)
[10] = biological target: ADRBK1 (human) (UniProt P25098)
[11] = biological target: ROS1 (human) (UniProt P08922)
[12] = biological target: TGFBR1 (human) (UniProt P36897)
[13] = biological target: CDK5 CDK5R1 p25 (human) (UniProt Q00535+Q15078)
[14] = biological target: GSK3A (human) (UniProt P49840)
[15] = biological target: DYRK4 (human) (UniProt Q9NR20)
[16] = biological target: CSNK1G3 (human) (UniProt Q9Y6M4)
[17] = biological target: EPHA1 (human) (UniProt P21709)
[18] = biological target: CLK4 (human) (UniProt Q9HAZ1)
[19] = biological target: CDK2 CCNA2 (human) (UniProt P24941+P20248)
[20] = biological target: BRSK1 (human) (UniProt Q8TDC3)
[21] = biological target: MYLK (human) (UniProt Q15746)
[22] = biological target: MYLK2 (human) (UniProt Q9H1R3)
[23] = biological target: AURKA (human) (UniProt O14965)
[24] = biological target: FGFR4 (human) (UniProt P22455)
[25] = biological target: DMPK (human) (UniProt Q09013)
[26] = biological target: RPS6KA6 KD1 KD2 (human) (UniProt Q9UK32)
[27] = biological target: RAF1 (human) (UniProt P04049)
[28] = biological target: SRPK1 (human) (UniProt Q96SB4)
[29] = biological target: CDC42BPB (human) (UniProt Q9Y5S2)
[30] = biological target: RPS6KB2 (human) (UniProt Q9UBS0)
[31] = biological target: TEC (human) (UniProt P42680)
[32] = biological target: MKNK2 (human) (UniProt Q9HBH9)
[33] = biological target: AURKC (human) (UniProt Q9UQB9)
[34] = biological target: RIPK2 (human) (UniProt O43353)
[35] = biological target: RPS6KA5 KD2 (human) (UniProt O75582)
[36] = biological target: ULK1 (human) (UniProt O75385)
[37] = biological target: MAP3K3 (human) (UniProt Q99759)
[38] = biological target: CSNK1E (human) (UniProt P49674)
[39] = biological target: PTK2 (human) (UniProt Q05397)
[40] = biological target: PIM3 (human) (UniProt Q86V86)
[41] = biological target: ERBB4 (human) (UniProt Q15303)
[42] = biological target: NUAK1 (human) (UniProt O60285)

RAF1 (human), sequence (P04049 whole entry, looked up): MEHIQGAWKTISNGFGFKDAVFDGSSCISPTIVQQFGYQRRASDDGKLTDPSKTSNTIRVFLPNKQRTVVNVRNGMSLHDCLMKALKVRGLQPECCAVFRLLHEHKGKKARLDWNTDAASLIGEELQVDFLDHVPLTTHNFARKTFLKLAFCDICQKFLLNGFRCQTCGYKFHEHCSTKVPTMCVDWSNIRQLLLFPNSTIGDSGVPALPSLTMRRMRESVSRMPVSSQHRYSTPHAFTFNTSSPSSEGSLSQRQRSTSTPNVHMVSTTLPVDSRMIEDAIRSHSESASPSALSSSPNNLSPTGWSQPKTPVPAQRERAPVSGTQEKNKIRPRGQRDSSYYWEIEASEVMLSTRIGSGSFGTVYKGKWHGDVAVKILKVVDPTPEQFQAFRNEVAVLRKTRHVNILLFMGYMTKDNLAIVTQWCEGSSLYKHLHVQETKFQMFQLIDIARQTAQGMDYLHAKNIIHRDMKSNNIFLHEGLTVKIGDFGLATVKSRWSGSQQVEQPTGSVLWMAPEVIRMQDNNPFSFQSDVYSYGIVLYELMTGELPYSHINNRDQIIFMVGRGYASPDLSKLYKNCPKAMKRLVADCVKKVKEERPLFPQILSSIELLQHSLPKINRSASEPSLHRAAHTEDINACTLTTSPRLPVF
CAMK2G (human), sequence (Q13555 whole entry, looked up): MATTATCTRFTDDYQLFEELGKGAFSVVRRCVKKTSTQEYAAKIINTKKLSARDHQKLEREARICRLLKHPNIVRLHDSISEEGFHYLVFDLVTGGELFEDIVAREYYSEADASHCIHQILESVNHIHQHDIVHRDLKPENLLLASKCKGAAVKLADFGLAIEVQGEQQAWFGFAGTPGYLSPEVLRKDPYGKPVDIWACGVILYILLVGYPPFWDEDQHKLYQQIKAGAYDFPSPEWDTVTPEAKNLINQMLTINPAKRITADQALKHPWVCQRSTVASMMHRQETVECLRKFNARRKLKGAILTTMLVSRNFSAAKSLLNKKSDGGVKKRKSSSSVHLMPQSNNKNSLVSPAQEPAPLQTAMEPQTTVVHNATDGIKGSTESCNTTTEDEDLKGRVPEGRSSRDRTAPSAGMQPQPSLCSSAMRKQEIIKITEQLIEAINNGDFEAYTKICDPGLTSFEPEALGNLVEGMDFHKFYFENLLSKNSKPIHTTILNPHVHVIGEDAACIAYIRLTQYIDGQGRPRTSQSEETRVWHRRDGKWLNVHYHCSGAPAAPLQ
RPS6KB2 (human), sequence (Q9UBS0 whole entry, looked up): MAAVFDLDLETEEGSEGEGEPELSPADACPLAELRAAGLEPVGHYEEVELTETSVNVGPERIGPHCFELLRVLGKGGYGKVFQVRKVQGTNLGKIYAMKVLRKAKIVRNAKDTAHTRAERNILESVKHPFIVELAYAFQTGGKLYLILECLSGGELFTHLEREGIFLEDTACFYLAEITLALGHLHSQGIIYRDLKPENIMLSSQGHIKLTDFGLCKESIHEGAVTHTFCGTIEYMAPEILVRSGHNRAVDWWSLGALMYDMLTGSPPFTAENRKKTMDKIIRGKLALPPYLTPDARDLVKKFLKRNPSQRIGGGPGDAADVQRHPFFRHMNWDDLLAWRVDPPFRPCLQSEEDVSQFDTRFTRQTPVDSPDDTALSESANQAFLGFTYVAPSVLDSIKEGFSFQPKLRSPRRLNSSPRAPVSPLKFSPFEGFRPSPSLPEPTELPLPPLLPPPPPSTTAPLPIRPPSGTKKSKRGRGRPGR
ERBB4 (human), sequence (Q15303 whole entry, looked up): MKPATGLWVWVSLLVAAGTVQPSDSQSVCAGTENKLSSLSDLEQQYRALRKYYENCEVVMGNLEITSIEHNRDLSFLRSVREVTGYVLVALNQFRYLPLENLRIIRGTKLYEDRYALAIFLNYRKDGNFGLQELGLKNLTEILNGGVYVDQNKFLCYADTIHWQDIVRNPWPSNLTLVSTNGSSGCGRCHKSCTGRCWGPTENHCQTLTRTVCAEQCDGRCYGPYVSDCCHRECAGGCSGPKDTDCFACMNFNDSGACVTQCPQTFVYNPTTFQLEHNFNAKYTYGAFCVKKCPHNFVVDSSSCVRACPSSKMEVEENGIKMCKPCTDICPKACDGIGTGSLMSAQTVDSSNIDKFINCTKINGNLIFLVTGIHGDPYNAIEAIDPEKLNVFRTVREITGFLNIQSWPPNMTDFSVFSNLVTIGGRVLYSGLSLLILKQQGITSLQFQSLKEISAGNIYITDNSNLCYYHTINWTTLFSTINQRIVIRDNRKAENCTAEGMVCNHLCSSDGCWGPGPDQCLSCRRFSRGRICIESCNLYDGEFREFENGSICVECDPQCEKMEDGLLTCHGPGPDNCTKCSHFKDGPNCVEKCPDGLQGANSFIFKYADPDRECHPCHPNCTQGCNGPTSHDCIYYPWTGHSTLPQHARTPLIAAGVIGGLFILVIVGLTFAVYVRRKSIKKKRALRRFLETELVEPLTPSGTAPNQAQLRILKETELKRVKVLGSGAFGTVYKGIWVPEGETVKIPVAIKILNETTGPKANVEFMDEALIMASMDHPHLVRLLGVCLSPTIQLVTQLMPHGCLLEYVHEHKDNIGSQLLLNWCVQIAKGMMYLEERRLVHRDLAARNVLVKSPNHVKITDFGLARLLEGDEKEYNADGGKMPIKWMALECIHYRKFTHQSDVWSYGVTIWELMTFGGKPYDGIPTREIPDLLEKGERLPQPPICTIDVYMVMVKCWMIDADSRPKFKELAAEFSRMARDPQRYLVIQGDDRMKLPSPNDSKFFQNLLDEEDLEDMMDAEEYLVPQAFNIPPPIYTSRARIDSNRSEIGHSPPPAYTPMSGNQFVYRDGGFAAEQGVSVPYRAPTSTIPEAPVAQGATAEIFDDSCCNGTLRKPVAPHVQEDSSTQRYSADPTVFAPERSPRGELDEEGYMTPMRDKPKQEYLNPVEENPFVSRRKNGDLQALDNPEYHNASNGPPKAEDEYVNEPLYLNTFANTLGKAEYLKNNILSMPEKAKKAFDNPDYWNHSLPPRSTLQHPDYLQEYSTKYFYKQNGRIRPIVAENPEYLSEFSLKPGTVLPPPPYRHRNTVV
DMPK (human), sequence (Q09013 whole entry, looked up): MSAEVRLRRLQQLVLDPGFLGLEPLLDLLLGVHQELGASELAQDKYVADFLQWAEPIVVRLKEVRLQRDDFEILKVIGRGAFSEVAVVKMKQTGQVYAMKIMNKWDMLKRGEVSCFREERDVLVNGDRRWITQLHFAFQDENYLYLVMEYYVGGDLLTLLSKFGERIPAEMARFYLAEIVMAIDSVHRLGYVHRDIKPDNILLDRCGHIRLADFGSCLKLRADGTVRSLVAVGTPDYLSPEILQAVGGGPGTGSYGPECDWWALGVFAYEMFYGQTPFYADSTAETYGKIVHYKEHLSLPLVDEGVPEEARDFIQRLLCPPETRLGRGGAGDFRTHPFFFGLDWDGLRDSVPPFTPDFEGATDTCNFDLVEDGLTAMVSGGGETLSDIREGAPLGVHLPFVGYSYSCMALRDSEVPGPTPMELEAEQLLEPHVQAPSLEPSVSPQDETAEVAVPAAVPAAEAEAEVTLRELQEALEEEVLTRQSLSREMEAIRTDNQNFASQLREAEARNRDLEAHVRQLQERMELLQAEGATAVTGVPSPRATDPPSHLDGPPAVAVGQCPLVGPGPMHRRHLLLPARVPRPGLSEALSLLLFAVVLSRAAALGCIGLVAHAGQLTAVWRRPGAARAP
FGFR1 (human), sequence (P11362 whole entry, looked up): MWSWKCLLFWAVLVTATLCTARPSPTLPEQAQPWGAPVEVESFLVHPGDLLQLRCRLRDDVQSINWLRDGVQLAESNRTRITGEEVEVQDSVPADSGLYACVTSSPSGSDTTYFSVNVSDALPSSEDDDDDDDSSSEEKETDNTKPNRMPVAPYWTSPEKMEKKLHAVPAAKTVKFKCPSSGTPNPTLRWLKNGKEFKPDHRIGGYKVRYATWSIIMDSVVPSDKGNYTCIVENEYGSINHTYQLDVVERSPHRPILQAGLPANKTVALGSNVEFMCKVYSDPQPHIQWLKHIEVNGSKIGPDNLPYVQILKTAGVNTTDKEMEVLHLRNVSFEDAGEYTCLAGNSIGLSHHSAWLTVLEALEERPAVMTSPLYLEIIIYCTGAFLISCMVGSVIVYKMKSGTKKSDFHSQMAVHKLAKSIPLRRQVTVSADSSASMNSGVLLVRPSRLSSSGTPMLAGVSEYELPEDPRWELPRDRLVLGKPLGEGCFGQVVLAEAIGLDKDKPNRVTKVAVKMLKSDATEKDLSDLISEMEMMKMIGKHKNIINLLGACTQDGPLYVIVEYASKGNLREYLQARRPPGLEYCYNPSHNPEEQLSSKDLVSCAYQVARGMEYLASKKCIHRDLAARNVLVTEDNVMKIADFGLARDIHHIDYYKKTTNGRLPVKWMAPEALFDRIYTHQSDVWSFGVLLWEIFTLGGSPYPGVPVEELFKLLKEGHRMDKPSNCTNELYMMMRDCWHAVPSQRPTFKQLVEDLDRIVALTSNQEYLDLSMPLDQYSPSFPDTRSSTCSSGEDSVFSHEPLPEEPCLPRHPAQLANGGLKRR
TGFBR1 (human), sequence (P36897 whole entry, looked up): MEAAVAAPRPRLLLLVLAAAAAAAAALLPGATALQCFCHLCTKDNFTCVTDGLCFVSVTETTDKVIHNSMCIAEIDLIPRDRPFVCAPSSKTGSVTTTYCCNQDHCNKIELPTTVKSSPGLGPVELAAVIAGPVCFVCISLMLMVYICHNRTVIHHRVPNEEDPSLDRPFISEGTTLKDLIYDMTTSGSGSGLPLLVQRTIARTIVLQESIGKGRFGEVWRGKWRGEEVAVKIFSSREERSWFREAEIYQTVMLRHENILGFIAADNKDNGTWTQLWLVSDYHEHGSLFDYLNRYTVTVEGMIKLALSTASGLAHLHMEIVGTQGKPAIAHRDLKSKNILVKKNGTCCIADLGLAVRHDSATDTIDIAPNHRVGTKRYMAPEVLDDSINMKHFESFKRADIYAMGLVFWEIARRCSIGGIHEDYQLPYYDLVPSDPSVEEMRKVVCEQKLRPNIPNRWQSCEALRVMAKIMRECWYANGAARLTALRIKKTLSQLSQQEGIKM

COc1ccc(S(=O)(=O)N(CCO)c2ccccc2CN(C)C/C=C/c2ccc(Cl)cc2)cc1
residual activity [1]: 98.6% | residual activity [2]: 99.3% | residual activity [3]: 102% | residual activity [4]: 90.6% | residual activity [5]: 101% | residual activity [6]: 104% | residual activity [7]: 103% | residual activity [8]: 99.5% | residual activity [9]: 96.3% | residual activity [10]: 97.9% | residual activity [11]: 95.4% | residual activity [12]: 101% | residual activity [13]: 97.7% | residual activity [14]: 99.9% | residual activity [15]: 99.6% | residual activity [16]: 98.3% | residual activity [17]: 101% | residual activity [18]: 96% | residual activity [19]: 99.7% | residual activity [20]: 98.4% | residual activity [21]: 98.4% | residual activity [22]: 97.8% | residual activity [23]: 97.5% | residual activity [24]: 98.3% | residual activity [25]: 105% | residual activity [26]: 102% | residual activity [27]: 93.7% | residual activity [28]: 105% | residual activity [29]: 101% | residual activity [30]: 97.1% | residual activity [31]: 101% | residual activity [32]: 102% | residual activity [33]: 96.8% | residual activity [34]: 87% | residual activity [35]: 103% | residual activity [36]: 99.7% | residual activity [37]: 99.8% | residual activity [38]: 105% | residual activity [39]: 104% | residual activity [40]: 105% | residual activity [41]: 104% | residual activity [42]: 96.5%

COc1cc2ncnc(Nc3ccc(OCc4ccccc4)cc3)c2cc1OC
residual activity [1]: 94.2% | residual activity [2]: 105% | residual activity [3]: 97.7% | residual activity [4]: 101% | residual activity [5]: 99.2% | residual activity [6]: 101% | residual activity [7]: 36% | residual activity [8]: 91.3% | residual activity [9]: 90.1% | residual activity [10]: 101% | residual activity [11]: 98% | residual activity [12]: 95.7% | residual activity [13]: 97.8% | residual activity [14]: 104% | residual activity [15]: 97.6% | residual activity [16]: 92.9% | residual activity [17]: 102% | residual activity [18]: 99.5% | residual activity [19]: 100% | residual activity [20]: 103% | residual activity [21]: 95% | residual activity [22]: 97.5% | residual activity [23]: 91.3% | residual activity [24]: 106% | residual activity [25]: 104% | residual activity [26]: 95.9% | residual activity [27]: 61% | residual activity [28]: 105% | residual activity [29]: 98.8% | residual activity [30]: 108% | residual activity [31]: 106% | residual activity [32]: 88.1% | residual activity [33]: 84.8% | residual activity [34]: 61.6% | residual activity [35]: 103% | residual activity [36]: 107% | residual activity [37]: 88.7% | residual activity [38]: 98.4% | residual activity [39]: 105% | residual activity [40]: 119% | residual activity [41]: 9.19% | residual activity [42]: 94.8%

CN(C)CCCn1cc(C2=C(c3c[nH]c4ccccc34)C(=O)NC2=O)c2ccccc21
residual activity [1]: 73.3% | residual activity [2]: 96.5% | residual activity [3]: 92.1% | residual activity [4]: 96.3% | residual activity [5]: 84.5% | residual activity [6]: 72% | residual activity [7]: 84.6% | residual activity [8]: 74.1% | residual activity [9]: 93.9% | residual activity [10]: 96.5% | residual activity [11]: 62.8% | residual activity [12]: 102% | residual activity [13]: 80.2% | residual activity [14]: 11.2% | residual activity [15]: 95% | residual activity [16]: 96.9% | residual activity [17]: 89.9% | residual activity [18]: 44.8% | residual activity [19]: 85.2% | residual activity [20]: 76.9% | residual activity [21]: 23.2% | residual activity [22]: 73.9% | residual activity [23]: 108% | residual activity [24]: 89% | residual activity [25]: 94.7% | residual activity [26]: 3.97% | residual activity [27]: 118% | residual activity [28]: 87% | residual activity [29]: 90.8% | residual activity [30]: 59% | residual activity [31]: 116% | residual activity [32]: 85.3% | residual activity [33]: 84.7% | residual activity [34]: 87.7% | residual activity [35]: 17% | residual activity [36]: 84.7% | residual activity [37]: 97% | residual activity [38]: 96.3% | residual activity [39]: 86.1% | residual activity [40]: 1.9% | residual activity [41]: 87.7% | residual activity [42]: 25.9%

O=C1NC(=O)c2c1c1c3ccccc3[nH]c1n1cncc21
residual activity [1]: 52.3% | residual activity [2]: 51.6% | residual activity [3]: 100% | residual activity [4]: 103% | residual activity [5]: 29.6% | residual activity [6]: 98.2% | residual activity [7]: 79.9% | residual activity [8]: 55.2% | residual activity [9]: 100% | residual activity [10]: 107% | residual activity [11]: 77% | residual activity [12]: 96.3% | residual activity [13]: 89.4% | residual activity [14]: 10.4% | residual activity [15]: 107% | residual activity [16]: 87% | residual activity [17]: 72.4% | residual activity [18]: 99% | residual activity [19]: 75.9% | residual activity [20]: 22.5% | residual activity [21]: 15.5% | residual activity [22]: 33.7% | residual activity [23]: 34.8% | residual activity [24]: 78.6% | residual activity [25]: 101% | residual activity [26]: 33.4% | residual activity [27]: 108% | residual activity [28]: 95.4% | residual activity [29]: 94.8% | residual activity [30]: 74.7% | residual activity [31]: 96.7% | residual activity [32]: 35% | residual activity [33]: 47.6% | residual activity [34]: 67.5% | residual activity [35]: 87.6% | residual activity [36]: 97.2% | residual activity [37]: 86.9% | residual activity [38]: 18.9% | residual activity [39]: 56.9% | residual activity [40]: 4.48% | residual activity [41]: 102% | residual activity [42]: 12.1%
